Measurements as given in the supplement of paper PMC10307832.

Legend:
Experiment in all cases: relative viability (nuclei count vs DMSO), 5 days (fraction); higher = more cells survive
[1] = compound: CC1=CC(=NN1)NC2=CC(=NC(=N2)/C=C/C3=CC=CC=C3)N4CCN(CC4)C + C[C@]1(O)C[C@@H](c2nc(-c3ccc4ccc(-c5ccccc5)nc4c3)c3c(N)nccn32)C1 [Linsitinib] (partner 1 µM)
Summary of the method: (§1)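 Lung cancer cell lines in 1536-well plates got either a single drug or a fixed anchor-drug dose together with five library-drug doses (not always all listed) in √10 steps, by pin tool, on the day after seeding. Nuclei were counted after 5 days, and relative viability is the treated-to-vehicle ratio of nuclei counts. Values are medians of duplicate plates.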

Bortezomib + Vorinostat = compound: CC(C)C[C@H](NC(=O)[C@H](Cc1ccccc1)NC(=O)c1cnccn1)B(O)O [Bortezomib] + O=C(CCCCCCC(=O)Nc1ccccc1)NO [Vorinostat] (partner 1 µM)
Summary of the method: as §1

[2] = compound: CC1=CC(=NN1)NC2=CC(=NC(=N2)/C=C/C3=CC=CC=C3)N4CCN(CC4)C + C[C@@H](Oc1cc(-c2cnn(C3CCNCC3)c2)cnc1N)c1c(Cl)ccc(F)c1Cl [Crizotinib] (partner 1 µM)
Summary of the method: as §1

[3] = compound: CC1=CC(=NN1)NC2=CC(=NC(=N2)/C=C/C3=CC=CC=C3)N4CCN(CC4)C + CC(=O)c1c(C)c2cnc(Nc3ccc(N4CCNCC4)cn3)nc2n(C2CCCC2)c1=O [Palbociclib] (partner 0.5 µM)
Summary of the method: as §1

With NCI-H650 the relative viability ([1]; first compound 0.08 µM) was 0.674, the relative viability ([1]; first compound 0.253 µM) was 1.06 and the relative viability ([1]; first compound 0.8 µM) was 0.777. For the same cell line, the relative viability ([1]; first compound 2.53 µM) was 0.278, the relative viability ([1]; first compound 8 µM) was 0.202 and the relative viability (Bortezomib + Vorinostat; first compound 0.0002 µM) was 0.395. For the same cell line, the relative viability (Bortezomib + Vorinostat; first compound 0.000632 µM) was 0.566, the relative viability (Bortezomib + Vorinostat; first compound 0.002 µM) was 0.452 and the relative viability (Bortezomib + Vorinostat; first compound 0.006325 µM) was 0.429. For the same cell line, the relative viability (Bortezomib + Vorinostat; first compound 0.02 µM) was 0.121, the relative viability ([2]; first compound 0.08 µM) was 0.916 and the relative viability ([2]; first compound 0.253 µM) was 0.739. For the same cell line, the relative viability ([2]; first compound 0.8 µM) was 0.515, the relative viability ([2]; first compound 2.53 µM) was 0.358 and the relative viability ([2]; first compound 8 µM) was 0.188. It also gave a relative viability ([3]; first compound 0.08 µM) of 0.288, a relative viability ([3]; first compound 0.253 µM) of 0.321 and a relative viability ([3]; first compound 0.8 µM) of 0.339. The relative viability ([3]; first compound 2.53 µM) was 0.294 and the relative viability ([3]; first compound 8 µM) was 0.177.
